Measured values published in patent US9493500B2, “Fluorinated pyrimidine analogs and methods of use thereof” (priority 2012, dated 2016).
Like-named read-outs stand apart in the source and are kept apart here. Values belong to the compound of their own block, whether it stands above or below them.

Tests used:
[1] = test system: myelodysplatic syndrome (MDS); details: treated patients with MDS; cited from earlier work
[2] = test system: various tumor cells lines, both solid and hematologic; details: available data; cited from earlier work
cytidine deaminase = cytidine deaminase (Homo sapiens, UniProt P32320); details: deamination of the base to inactive uracil; cited from earlier work
[3] = following subcutaneous administration; cited from earlier work
[4] = test system: DNA methyltransferase (DNMT); assay: In vitro DNA methyltransferase inhibition in HCT-116 cells (EpiQuick kit); assay type: cell-based
Experimental: The assay was performed using the EpiQuick DNA Methyltransferase Activity/Inhibition Assay Kit (Epigentek, Brooklyn, N.Y.). The […] cells were incubated with 1 μM and 10 μM concentrations of each drug for a period of 24 hours.

[5] = test system: various tumor cells lines, both solid and hematologic; assay: Cytotoxicity against various tumor cell lines (overall comparison); assay type: cell-based
MDA-MB-231 = assay: In vitro cytotoxicity (GI50), breast cancer cell line; assay type: cell-based
Experimental: (§1) The in vitro cytotoxicity was measured in the following cell lines: NCI-H460 (ATCC #HTB-177) (non-small cell lung), HCT-116 (ATCC #CCL-247) (colorectal), HL-60 (ATCC #CCL-240) (leukemia), and MDA-MB-231 (ATCC #HTB-26) (breast).

NCI-H460 = assay: In vitro cytotoxicity (GI50), non-small cell lung cell line; assay type: cell-based
Experimental: as §1

L1210 [6] = assay: In vitro cytotoxicity, leukemia cell line L1210; details: read-out: In vitro cytotoxicity, Leukemia L1210; Table 3
HCT-116 = assay: In vitro cytotoxicity (GI50), colon/colorectal cell line; assay type: cell-based
Experimental: as §1

L1210 [7] = test system: L1210

Chain of cytidine deaminase (P32320 whole entry, species assumed): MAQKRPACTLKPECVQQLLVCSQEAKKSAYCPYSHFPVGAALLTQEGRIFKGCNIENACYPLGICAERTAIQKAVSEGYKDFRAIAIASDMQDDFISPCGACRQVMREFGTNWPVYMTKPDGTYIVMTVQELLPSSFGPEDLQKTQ

SMILES: Nc1ncn([C@@H]2O[C@H](CO)[C@@H](O)[C@H]2O)c(=O)n1 [Azacytidine, 5-azacytidine]
Remissions or clinical improvements [1]: remissions or clinical improvements in more than half of the treated patients

SMILES: NC1=NC(=O)N([C@H]2C[C@H](O)[C@@H](CO)O2)CN1 [DHADC, 5,6-dihydro-5-aza-2′-deoxycytidine]
Cytotoxicity compared to decitabine [2]: lesser cytotoxicity

SMILES: Nc1ncn([C@H]2C[C@H](O)[C@@H](CO)O2)c(=O)n1 [Decitabine, 5-azadeoxycytidine]
Substrate for cytidine deaminase (cytidine deaminase): good substrates for cytidine deaminase | Remissions or clinical improvements [1]: remissions or clinical improvements in more than half of the treated patients | Half-life [3]: 30 min

SMILES: Nc1ncn([C@@H]2O[C@H](CO)[C@@H](O)C2(F)F)c(=O)n1 [NUC013, 2′,2′-difluoro-5-azadeoxycytidine]
DNA methyltransferase inhibition (conclusion in words) [4]: is an inhibitor of DNA methyltransferase | Cytotoxicity profile (in words) [5]: active against cell lines that are resistant to decitabine

SMILES: NC1=NC(=O)N([C@@H]2O[C@H](CO)[C@@H](O)C2(F)F)CN1 [NUC014, 2′,2′-difluoro-5,6-dihydro-5-azadeoxycytidine]
Cytotoxicity profile (in words) [5]: less cytotoxic than NUC013

SMILES: O=c1ncccn1[C@@H]1O[C@H](CO)[C@@H](O)C1(F)F [NUC019, 2′-deoxy-2′,2′-difluorozebularine]
IC50 (MDA-MB-231; Table 3, read-out: In vitro cytotoxicity, Breast MDA-MB-231): 166 µM | IC50 (NCI-H460; Table 3, read-out: In vitro cytotoxicity, NSCL NCI-H460): 136 µM | IC50 (L1210 [6]): 321 µM | IC50 (HCT-116; Table 3, read-out: In vitro cytotoxicity, Colon HCT-116): 310 µM

IC50 (L1210 [7]): 346 µM
SMILES: O=c1ncccn1[C@H]1O[C@H](CO)[C@@H](O)C1(F)F [NUC020]
IC50 (MDA-MB-231): 213 µM | IC50 (NCI-H460): 136 µM | IC50 (HCT-116): 279 µM
